Values of other authors in patent US20230000809A1, “TREATMENT OF DISORDERS ARISING FROM GENETIC MUTATION” (priority 2021, published 2023).
Structures can show the parent of a compound that is named as a salt.

Columns and labels:
[1] = tested on: gadolinium enhancing lesions; details: RRMS patients; after 24 weeks of treatment as compared to placebo
[2] = tested on: nuclear factor kappa B (NF-κB)-dependent transcription of TNF-α induced genes; details: human endothelial cells, in vitro

| Compound | number of gadolinium enhancing lesions [1] | effect on NF-κB-dependent transcription of TNF-α induced genes [2] |
| --- | --- | --- |
| COC(=O)/C=C/C(=O)OC [BG-12] | significant reduction |  |
| COC(=O)/C=C/C(=O)OC [DMF, dimethyl fumarate] |  | inhibitory effect |
